Experimental data published in publication PMC9367459 (Animals : an Open Access Journal from MDPI, 2022).
Where “and” joins values, the source holds several entries; their conditions need not be identical. Identical values can stand only once. Like-named read-outs stand apart in the source and are kept apart here.

Key:
[1] = in vitro; conditions: human
[2] = test system: FMDV serotype A
[3] = test system: FMDV serotype A; type: cell-based, A/TAI/NP05/2016 (NP05)
[4] = test system: FMDV; type: cell-based, FMDV serotype A, A/TAI/NP05/2016 (NP05)
[5] = target: FMDV 3C^pro (Foot-and-mouth disease virus, UniProt P03306); test: cell-based; conditions: for IC90: HEK-293T
[6] = test system: chikungunya virus; conditions: cited from earlier work
[7] = test system: FMDV serotype A; test: organism not typed; conditions: BHK-21
[8] = test system: FMDV; type: cell-based, FMDV serotype A, A/TAI/NP05/2016 (NP05); remark: listed apart in the source
[9] = test system: IFN-antagonist activity of FMDV 3C^pro; type: cell-based, human
[10] = test system: BHK-21 cells; conditions: hamster
[11] = test system: hepatitis B virus; conditions: cited from earlier work
[12] = in vitro; conditions: hamster

FMDV 3C^pro, sequence (P03306 1650-1862 limits assumed): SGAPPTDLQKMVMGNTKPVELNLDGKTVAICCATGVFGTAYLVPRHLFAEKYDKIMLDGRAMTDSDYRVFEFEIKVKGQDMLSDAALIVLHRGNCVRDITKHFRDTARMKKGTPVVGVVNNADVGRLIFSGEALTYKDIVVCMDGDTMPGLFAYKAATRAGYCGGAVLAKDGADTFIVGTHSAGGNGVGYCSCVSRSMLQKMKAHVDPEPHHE

Structure (SMILES) | CC50 [1] | SI (CC50/EC50) [2] | Viral nucleic acids (viral copy numbers) [3] | Protection activity [4] | IC50 [5] | IC90 [5] | EC50 [6] | EC50 [7] | Extracellular virucidal activity [8] | Effect on IFN-antagonist activity of 3C^pro [9] | ISG15 mRNA expression [9] | ISG56 mRNA expression [9] | Mx-1 mRNA expression [9] | PKR mRNA expression [9] | CC10 [10] | EC50 [11] | CC50 [12] | OAS-1 mRNA expression [9] | CC50 [10] | EC50 [2]
C=C1CC[C@@H]2[C@](C)(CO)[C@H](O)CC[C@@]2(C)[C@@H]1C/C=C1/C(=O)OC[C@H]1O [AGL, andrographolide] | 453 ± 0.04 µM | 2.23 | significantly decreased | neither extracellular virucidal nor protection activities | 67.4 ± 0.81 µM | 267.2 ± 2.43 µM | 77.4 µM and 88 µM | 52.18 ± 0.01 µM | neither extracellular virucidal nor protection activities | significantly derepressed the IFN-antagonist activity of the 3C^pro | 52.93 fold-changes and 59.99 fold-changes | 72.73 fold-changes and 107.66 fold-changes | 5.33 fold-changes and 6.98 fold-changes | 6.22 fold-changes and 6.12 fold-changes | 94.55 ± 0.02 µM | 54.1 µM | 116.8 ± 0.03 µM | – | – | –
C=C1CC[C@@H]2[C@](C)(CO)[C@H](O)CC[C@@]2(C)[C@@H]1CCC1=CCOC1=O [DAG, deoxyandrographolide] | 651.4 ± 0.32 µM | – | significantly decreased | neither extracellular virucidal nor protection activities | 25.6 ± 1.41 µM | 123 ± 2.09 µM | – | 36.47 ± 0.07 µM | neither extracellular virucidal nor protection activities | significantly derepressed the IFN-antagonist activity of the 3C^pro | 62.36 fold-changes and 64.43 fold-changes | 84.77 fold-changes and 77.60 fold-changes | 14.37 fold-changes and 13.04 fold-changes | 11.65 fold-changes and 12.84 fold-changes | 81.05 ± 0.01 µM | – | 211.5 ± 0.03 µM | 250.25 fold-changes and 244.76 fold-changes | 332.3 ± 0.09 µM | –
C=C1CC[C@@H]2[C@](C)(CO[C@@H]3O[C@H](CO)[C@@H](O)[C@H](O)[C@H]3O)CCC[C@@]2(C)[C@@H]1CCC1=CCOC1=O [NEO, neoandrographolide] | 914.2 ± 0.04 µM | 0.38 | reduced viral replication to a lesser extent | neither extracellular virucidal nor protection activities | 111 ± 2.04 µM | 635.8 ± 2.9 µM | – | > 500 µM | neither extracellular virucidal nor protection activities | could not reduce the IFN suppression by 3C^pro | 37.58 fold-changes and 32.91 fold-changes | 62.33 fold-changes and 55.39 fold-changes | 2.19 fold-changes and 4.00 fold-changes | 3.65 fold-changes and 1.99 fold-changes | 149.94 ± 0.21 µM | – | 332.3 ± 0.09 µM | 106.88 fold-changes and 163.69 fold-changes | 211.5 ± 0.03 µM | 542.4 ± 0.2 µM
